Eleven compounds from patent US12552783B2, “Modulators of proteolysis and associated methods of use” (Arvinas Operations, Inc., priority 2018, dated 2026) can be followed below.

For the assay, the target named is KRas (Homo sapiens, UniProt P01116, G12C). The assay is described as follows: KRas degradation in NCI-H2030 cells by Western blot, normalized to GAPDH (data of Table 14). Particulars: for Percent Degradation at Indicated Concentration (μM): H2030; for Dmax: NCI-H2030. Set-up: host or cells: NCI-H2030. The format is cell-based. The procedure, abridged:
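Cells plated overnight, switched to FBS-free medium for 24 h, then treated (0.3, 1, 3 μM final; 0.1% DMSO) for 24 h if VHL-based, otherwise 72 h. RIPA lysates (10 μg protein) blotted for KRas, signal normalized to GAPDH and compared with DMSO.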
Background: In western blotting, separated proteins are transferred to a membrane and probed.

Structures are written as SMILES. Some results are limits rather than exact numbers.

Consider `O=C1CCC(N2C(=O)c3ccc(OCCOCCOCCOCC/C=C/C(=O)N4CCN(c5ncnc6c(F)c(-c7cc(O)cc8ccccc78)c(Cl)cc56)CC4)cc3C2=O)C(=O)N1` (centres unmarked) [compound 170, (E)-5-(2-(2-(2-((5-(4-(6-chloro-8-fluoro-7-(3-hydroxynaphthalen-1-yl)quinazolin-4-yl)piperazin-1-yl)-5-oxopent-3-en-1-yl)oxy)ethoxy)ethoxy)ethoxy)-2-(2,6-dioxopiperidin-3-yl)isoindoline-1,3-dione], for which the Dmax (usually the greatest extent of degradation seen) was no more than 35%. For the same compound, the “Percent Degradation at Indicated Concentration (μM)” value (0.3 μM) is listed as “C (Percent Degradation: C ≤ 35)”. Further, the “Percent Degradation at Indicated Concentration (μM)” value (1 μM) is “C (Percent Degradation: C ≤ 35)”. Moreover, the “Percent Degradation at Indicated Concentration (μM)” value (3 μM) was “C (Percent Degradation: C ≤ 35)”.
`CN(C)C(=O)CCNc1nc(N2CCN(C(=O)/C=C/CCOCCOc3ccc4c(c3)C(=O)N(C3CCC(=O)NC3=O)C4=O)CC2)c2cc(Cl)c(-c3cc(O)cc4ccccc34)c(F)c2n1` (centres unmarked) [compound 172, (E)-3-((6-chloro-4-(4-(5-(2-((2-(2,6-dioxopiperidin-3-yl)-1,3-dioxoisoindolin-5-yl)oxy)ethoxy)pent-2-enoyl)piperazin-1-yl)-8-fluoro-7-(3-hydroxynaphthalen-1-yl)quinazolin-2-yl)amino)-N,N-dimethylpropanamide] returned a Dmax of no more than 35%. Further, for the setting “0.3 μM”, the “Percent Degradation at Indicated Concentration (μM)” value is “C (Percent Degradation: C ≤ 35)”. The “Percent Degradation at Indicated Concentration (μM)” value (1 μM) was “C (Percent Degradation: C ≤ 35)”. Where the note is “3 μM”, the “Percent Degradation at Indicated Concentration (μM)” value is “C (Percent Degradation: C ≤ 35)”.
`CN(C)C(=O)CCNc1nc(N2CCN(C(=O)/C=C/CCOCCOCCOCCOc3ccc4c(c3)C(=O)N(C3CCC(=O)NC3=O)C4=O)CC2)c2cc(Cl)c(-c3cc(O)cc4ccccc34)c(F)c2n1` (centres unmarked) [compound 174, (E)-3-((6-chloro-4-(4-(5-(2-(2-(2-((2-(2,6-dioxopiperidin-3-yl)-1,3-dioxoisoindolin-5-yl)oxy)ethoxy)ethoxy)ethoxy)pent-2-enoyl)piperazin-1-yl)-8-fluoro-7-(3-hydroxynaphthalen-1-yl)quinazolin-2-yl)amino)-N,N-dimethylpropanamide] displayed a Dmax of no more than 35%. Moreover, the “Percent Degradation at Indicated Concentration (μM)” value (0.3 μM) is given as “C (Percent Degradation: C ≤ 35)”. Also, the “Percent Degradation at Indicated Concentration (μM)” value (1 μM) is reported as “C (Percent Degradation: C ≤ 35)”. For the same compound, the “Percent Degradation at Indicated Concentration (μM)” value (3 μM) was “C (Percent Degradation: C ≤ 35)”.
Regarding `Cc1ncsc1-c1ccc([C@H](C)NC(=O)[C@@H]2C[C@@H](O)CN2C(=O)[C@@H](NC(=O)COCCOCCN(C)C(=O)CCNc2nc(N3CCN(C(N)=O)CC3)c3cc(Cl)c(-c4cc(O)cc5ccccc45)c(F)c3n2)C(C)(C)C)cc1` [compound 182, 4-(6-chloro-8-fluoro-2-(((S)-14-((2S,4R)-4-hydroxy-2-(((S)-1-(4-(4-methylthiazol-5-yl)phenyl)ethyl)carbamoyl)pyrrolidine-1-carbonyl)-4,15,15-trimethyl-3,12-dioxo-7,10-dioxa-4,13-diazahexadecyl)amino)-7-(3-hydroxynaphthalen-1-yl)quinazolin-4-yl)piperazine-1-carboxamide], the maximal degradation (Dmax) is no more than 35%. Under “0.3 μM”, the “Percent Degradation at Indicated Concentration (μM)” value is recorded as “C (Percent Degradation: C ≤ 35)”. Also, the “Percent Degradation at Indicated Concentration (μM)” value (1 μM) is listed as “C (Percent Degradation: C ≤ 35)”. In addition, under “3 μM”, the “Percent Degradation at Indicated Concentration (μM)” value is “C (Percent Degradation: C ≤ 35)”.
On to `Cc1ncsc1-c1ccc([C@H](C)NC(=O)[C@@H]2C[C@@H](O)CN2C(=O)[C@@H](NC(=O)COCCOCCOCCOCCN(C)C(=O)CCNc2nc(N3CCN(C(N)=O)CC3)c3cc(Cl)c(-c4cc(O)cc5ccccc45)c(F)c3n2)C(C)(C)C)cc1` [compound 184, 4-(6-chloro-8-fluoro-2-(((S)-20-((2S,4R)-4-hydroxy-2-(((S)-1-(4-(4-methylthiazol-5-yl)phenyl)ethyl)carbamoyl)pyrrolidine-1-carbonyl)-4,21,21-trimethyl-3,18-dioxo-7,10,13,16-tetraoxa-4,19-diazadocosyl)amino)-7-(3-hydroxynaphthalen-1-yl)quinazolin-4-yl)piperazine-1-carboxamide], for which the Dmax is no more than 35%. The “Percent Degradation at Indicated Concentration (μM)” value (0.3 μM) is “C (Percent Degradation: C ≤ 35)”. The “Percent Degradation at Indicated Concentration (μM)” value (1 μM) is given as “C (Percent Degradation: C ≤ 35)”. The “Percent Degradation at Indicated Concentration (μM)” value (3 μM) is reported as “C (Percent Degradation: C ≤ 35)”.
`CCC(=O)N1CCN(c2nc(NCCC(=O)N(C)CCOCC(=O)N[C@H](C(=O)N3C[C@H](O)C[C@H]3C(=O)N[C@@H](C)c3ccc(-c4scnc4C)cc3)C(C)(C)C)nc3c(F)c(-c4cc(O)cc5ccccc45)c(Cl)cc23)CC1` [compound 186, (2S,4R)-1-((2S)-2-(2-(2-(3-((6-chloro-8-fluoro-7-(3-hydroxynaphthalen-1-yl)-4-(4-propionylpiperazin-1-yl)quinazolin-2-yl)amino)-N-methylpropanamido)ethoxy)acetamido)-3,3-dimethylbutanoyl)-4-hydroxy-N-((S)-1-(4-(4-methylthiazol-5-yl)phenyl)ethyl)pyrrolidine-2-carboxamide]: the “Percent Degradation at Indicated Concentration (μM): 0.3” value (“Percent Degradation … 0.3” for short) (H2030 cells, 0.3 μM) is listed as “C (C ≤ 35)”. Further, for the setting “H2030 cells, 1 μM”, the “Percent Degradation at Indicated Concentration (μM): 1” value (“Percent Degradation … (μM): 1” below) is listed as “C (C ≤ 35)”. In addition, where the note is “H2030 cells, 3 μM”, the “Percent Degradation at Indicated Concentration (μM): 3” value (“Percent Degradation … (μM): 3” for short) is on record as “C (C ≤ 35)”. The compound further had a Dmax (H2030 cells) of no more than 35%.
For `CCC(=O)N1CCN(c2nc(NCCC(=O)N(C)CCOCCOCC(=O)N[C@H](C(=O)N3C[C@H](O)C[C@H]3C(=O)N[C@@H](C)c3ccc(-c4scnc4C)cc3)C(C)(C)C)nc3c(F)c(-c4cc(O)cc5ccccc45)c(Cl)cc23)CC1` [compound 187, (2S,4R)-1-((2S)-2-(tert-butyl)-15-((6-chloro-8-fluoro-7-(3-hydroxynaphthalen-1-yl)-4-(4-propionylpiperazin-1-yl)quinazolin-2-yl)amino)-12-methyl-4,13-dioxo-6,9-dioxa-3,12-diazapentadecanoyl)-4-hydroxy-N-((S)-1-(4-(4-methylthiazol-5-yl)phenyl)ethyl)pyrrolidine-2-carboxamide], the “Percent Degradation … 0.3” value (H2030 cells, 0.3 μM) was “C (C ≤ 35)”. The “Percent Degradation … (μM): 1” value (H2030 cells, 1 μM) was “C (C ≤ 35)”. For the same compound, the “Percent Degradation … (μM): 3” value (H2030 cells, 3 μM) is recorded as “C (C ≤ 35)”. Also, the Dmax (H2030 cells) is no more than 35%.
In the case of `CCC(=O)N1CCN(c2nc(NCCC(=O)N(C)CCOCCOCCOCC(=O)N[C@H](C(=O)N3C[C@H](O)C[C@H]3C(=O)N[C@@H](C)c3ccc(-c4scnc4C)cc3)C(C)(C)C)nc3c(F)c(-c4cc(O)cc5ccccc45)c(Cl)cc23)CC1` [compound 188, (2S,4R)-1-((2S)-2-(tert-butyl)-18-((6-chloro-8-fluoro-7-(3-hydroxynaphthalen-1-yl)-4-(4-propionylpiperazin-1-yl)quinazolin-2-yl)amino)-15-methyl-4,16-dioxo-6,9,12-trioxa-3,15-diazaoctadecanoyl)-4-hydroxy-N-((S)-1-(4-(4-methylthiazol-5-yl)phenyl)ethyl)pyrrolidine-2-carboxamide], the “Percent Degradation … 0.3” value (H2030 cells, 0.3 μM) is “C (C ≤ 35)”. Further, the “Percent Degradation … (μM): 1” value (H2030 cells, 1 μM) is “C (C ≤ 35)”. Also, for the setting “H2030 cells, 3 μM”, the “Percent Degradation … (μM): 3” value is recorded as “C (C ≤ 35)”. Under “H2030 cells”, this compound had a Dmax of no more than 35%.
With `CCC(=O)N1CCN(c2nc(NCCC(=O)N(C)CCOCCOCCOCCOCC(=O)N[C@H](C(=O)N3C[C@H](O)C[C@H]3C(=O)N[C@@H](C)c3ccc(-c4scnc4C)cc3)C(C)(C)C)nc3c(F)c(-c4cc(O)cc5ccccc45)c(Cl)cc23)CC1` [compound 189, (2S,4R)-1-((2S)-2-(tert-butyl)-21-((6-chloro-8-fluoro-7-(3-hydroxynaphthalen-1-yl)-4-(4-propionylpiperazin-1-yl)quinazolin-2-yl)amino)-18-methyl-4,19-dioxo-6,9,12,15-tetraoxa-3,18-diazahenicosanoyl)-4-hydroxy-N-((S)-1-(4-(4-methylthiazol-5-yl)phenyl)ethyl)pyrrolidine-2-carboxamide], the “Percent Degradation … 0.3” value (H2030 cells, 0.3 μM) was “C (C ≤ 35)”. Moreover, for the setting “H2030 cells, 1 μM”, the “Percent Degradation … (μM): 1” value was “C (C ≤ 35)”. Further, the “Percent Degradation … (μM): 3” value (H2030 cells, 3 μM) is given as “C (C ≤ 35)”. For the setting “H2030 cells”, this compound displayed a Dmax of no more than 35%.
Turning to `CCC(=O)N1CCN(c2nc(NCCC(=O)N(C)CCOCCOCCOCCOCCOCC(=O)N[C@H](C(=O)N3C[C@H](O)C[C@H]3C(=O)N[C@@H](C)c3ccc(-c4scnc4C)cc3)C(C)(C)C)nc3c(F)c(-c4cc(O)cc5ccccc45)c(Cl)cc23)CC1` [compound 190, (2S,4R)-1-((2S)-2-(tert-butyl)-24-((6-chloro-8-fluoro-7-(3-hydroxynaphthalen-1-yl)-4-(4-propionylpiperazin-1-yl)quinazolin-2-yl)amino)-21-methyl-4,22-dioxo-6,9,12,15,18-pentaoxa-3,21-diazatetracosanoyl)-4-hydroxy-N-((S)-1-(4-(4-methylthiazol-5-yl)phenyl)ethyl)pyrrolidine-2-carboxamide], the “Percent Degradation … 0.3” value (H2030 cells, 0.3 μM) is on record as “C (C ≤ 35)”. Where the note is “H2030 cells, 1 μM”, the “Percent Degradation … (μM): 1” value was “C (C ≤ 35)”. In addition, the “Percent Degradation … (μM): 3” value (H2030 cells, 3 μM) is given as “C (C ≤ 35)”. In addition, the Dmax (H2030 cells) was no more than 35%.
Take `C=CC(=O)N1CCN(c2nc(NCCC(=O)N(C)CCOCC(=O)N[C@H](C(=O)N3C[C@H](O)C[C@H]3C(=O)N[C@@H](C)c3ccc(-c4scnc4C)cc3)C(C)(C)C)nc3c(F)c(-c4cc(O)cc5ccccc45)c(Cl)cc23)CC1` [compound 191, (2S,4R)-1-((2S)-2-(2-(2-(3-((4-(4-acryloylpiperazin-1-yl)-6-chloro-8-fluoro-7-(3-hydroxynaphthalen-1-yl)quinazolin-2-yl)amino)-N-methylpropanamido)ethoxy)acetamido)-3,3-dimethylbutanoyl)-4-hydroxy-N-((S)-1-(4-(4-methylthiazol-5-yl)phenyl)ethyl)pyrrolidine-2-carboxamide]: the “Percent Degradation at Indicated Concentration (μM): 0.1” value (H2030 cells, 0.1 μM) is “C (C ≤ 35)”. For the setting “H2030 cells, 0.3 μM”, the “Percent Degradation … 0.3” value is recorded as “C (C ≤ 35)”. For the same compound, the “Percent Degradation … (μM): 1” value (H2030 cells, 1 μM) is “C (C ≤ 35)”. For the same compound, the Dmax (H2030 cells) was no more than 35%.
